The values that follow come from patent publication US20230372276A1, “METHODS FOR DELIVERING MEDIUM CHAIN TRIGLYCERIDES WITH CONTROLLED PHARMACOKINETIC, SAFETY AND TOLERABILITY PROFILES” (Cerecin Inc., priority 2020, published 2023).

Data set [1] is described as follows: Ethnicity analysis of total ketone exposure, Chinese vs Caucasian (Study 2 parts combined). To be noted: healthy participants. Format: in vivo, human (healthy young male Caucasian and Asian volunteers). Here is the method: The present example investigates the pharmacokinetics, safety and tolerability of tricaprilin in healthy young male Caucasian and Asian volunteers to understand and elucidate any differences between the two populations and any identify any ethnic sensitivities. In this example, data from several studies were analyzed to evaluate any ethnicity differences in safety and tolerability of tricaprilin. The analyzed studies included Caucasian and Asian (Chinese) subjects and several analyses were conducted to compare the effects in Caucasians vs Asian. Ethnic Chinese participants were defined as all four grandparents being Chinese. The level of total ketones were quantitated using a validated LC-MS/MS bioanalytical assay.
Methods: Study 1 was a food effect study of a spray dried formulation of tricaprilin (AC-SD-01), conducted in healthy young males. […] Both of these studies included Caucasian and Asian (Chinese) subjects and several analyses were conducted to compare the effects in Caucasians vs Chinese. To explore whether ethnicity affects total ketone body exposure after tricaprilin administration, the pharmacokinetic parameters AUC0-t and Cmax from Study 2 were examined and grouped by an individual's ethnicity (Chinese or Caucasian).

The conditions of data set [2]: both, human, in vivo.
Experimental: The population for this study was 12 healthy older males and females age 50 and above.
Following a Screening period of up to 28 days, eligible subjects arrived at the clinical research unit (CRU) for Check-in on Day −1. On Day 1, subjects had predose samples of plasma serum taken for PK. […] Dose 2 was administered 30 minutes after completion of a standard lunch.
Subjects were to gradually increase the dose according to the titration scheme, aiming to reach a dose of 75 g twice a day.
On Days 15 and 21, subjects had predose and postdose (1, 1.5, and 2 hours) samples of plasma taken for PK. On Day 24, subjects had predose samples of plasma taken for PK. After the first dose on Day 24, 24-hour PK sampling was done to measure ketone body levels (βHB, AcAc). Check-out was on Day 25 following completion of scheduled assessments.
Immediately after dosing, the remaining treatment in the container was rinsed with 60 mL of water and administered to the subject for a total of approximately 300 mL of dosing liquid consumed for each dosing.
Cmax and Tmax were calculated for total ketones, βHB, and AcAc for the Day 15 and Day 21 PK sampling.
The plasma concentrations of βHB, AcAc, and total ketones were listed and summarized by study day and time point for all subjects in the PK Population. Mean and individual concentration-time profiles for Days 15, 21, and 24 were presented on linear and semi-log scales. Linear mean plots were presented with and without SD. Plasma βHB, AcAc and total ketones PK parameters were listed and summarized by study day and dose for all subjects in the PK Population. No inferential statistics were performed on the PK data.

Regarding `CCCCCCCC(=O)OCC(COC(=O)CCCCCCC)OC(=O)CCCCCCC` [tricaprilin], the “Exposure to total ketones, ethnic Chinese compared to Caucasians” value in data set [1] is on record as “no different”. Further, in data set [2], the “increase of geometric mean Cmax for AcAc” value came to 2.3 fold, the “increase of geometric mean Cmax for total ketones” value is recorded as 2.7 fold and the “increase of geometric mean Cmax for βHB” value is 2.9 fold.
